# From patent US20080009418A1, “Selective Inhibitors” (Alchemia LTD., priority 2004, published 2008)
# What was measured:
# Settings in all cases: compound at 10 μM
# Human neurokinin (NK1) = target: T1, Human neurokinin (NK1) (Homo sapiens, UniProt P25103); assay: Radioligand binding, human neurokinin NK1 membranes, filtration, [125I]-Substance P
# T1 construct: purchased Perkin Elmer Biosignal
# How it was run: (§1)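 Filtration binding on cloned human receptor membranes (1 Unit/well), [125I]-Substance P for NK1 and [3H]-Diprenorphine for KOP, 1 h at room temperature. Filters PEI-presoaked, washed with cold 50 mM Tris-HCl pH 7.4, counted by scintillation; percent inhibition calculated, reference ligand defining non-specific binding.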
# Human melanocortin (MC5) = target: T2, Human melanocortin (MC5) (Homo sapiens, UniProt P33032); assay: Radioligand binding, human melanocortin MC5 membranes, FlashPlate, [125I]-NDP-αMSH
# T2 construct: purchased Perkin Elmer Biosignal
# T2 sequence (P33032 whole entry): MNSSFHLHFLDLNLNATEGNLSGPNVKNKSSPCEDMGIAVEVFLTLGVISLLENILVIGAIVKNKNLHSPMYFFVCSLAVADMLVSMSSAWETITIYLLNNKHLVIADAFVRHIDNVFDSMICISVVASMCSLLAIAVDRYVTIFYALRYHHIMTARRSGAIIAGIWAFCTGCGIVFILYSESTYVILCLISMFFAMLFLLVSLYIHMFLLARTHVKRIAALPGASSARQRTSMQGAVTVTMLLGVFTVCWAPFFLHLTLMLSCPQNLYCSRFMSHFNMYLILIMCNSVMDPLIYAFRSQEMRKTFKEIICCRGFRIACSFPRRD
# How it was run: (§2)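 Cloned human receptor membranes were coated onto FlashPlate wells and incubated with radioligand and compound (added from a 0.5 mM DMSO daughter plate) for 1 hour at room temperature in the dark. Scintillation counting gave percent inhibition, with DMSO defining total and reference ligand defining non-specific binding.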
# Human κ-Opioid (KOP) = target: T3, Human κ-Opioid (KOP) (Homo sapiens, UniProt P41145); assay: Radioligand binding, human κ-opioid (KOP) membranes, filtration, [3H]-Diprenorphine
# T3 construct: purchased Perkin Elmer Biosignal
# T3 sequence (P41145 whole entry): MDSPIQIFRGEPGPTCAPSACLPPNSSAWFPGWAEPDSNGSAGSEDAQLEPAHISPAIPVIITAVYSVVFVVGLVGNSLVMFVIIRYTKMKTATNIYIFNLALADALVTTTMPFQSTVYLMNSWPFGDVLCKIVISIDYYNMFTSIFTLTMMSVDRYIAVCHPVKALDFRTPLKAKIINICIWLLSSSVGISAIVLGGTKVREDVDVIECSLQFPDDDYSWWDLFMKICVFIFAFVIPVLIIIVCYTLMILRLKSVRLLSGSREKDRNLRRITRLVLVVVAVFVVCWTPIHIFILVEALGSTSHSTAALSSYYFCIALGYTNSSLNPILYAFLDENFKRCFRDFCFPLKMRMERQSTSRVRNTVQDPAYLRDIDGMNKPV
# How it was run: as §1
# Human opioid (ORL1) = target: T4, Human opioid (ORL1) (Homo sapiens, UniProt P41146); assay: Radioligand binding, human opioid ORL1 membranes, FlashPlate, [125I]-Nociceptin
# T4 construct: purchased Perkin Elmer Biosignal
# T4 sequence (P41146 whole entry): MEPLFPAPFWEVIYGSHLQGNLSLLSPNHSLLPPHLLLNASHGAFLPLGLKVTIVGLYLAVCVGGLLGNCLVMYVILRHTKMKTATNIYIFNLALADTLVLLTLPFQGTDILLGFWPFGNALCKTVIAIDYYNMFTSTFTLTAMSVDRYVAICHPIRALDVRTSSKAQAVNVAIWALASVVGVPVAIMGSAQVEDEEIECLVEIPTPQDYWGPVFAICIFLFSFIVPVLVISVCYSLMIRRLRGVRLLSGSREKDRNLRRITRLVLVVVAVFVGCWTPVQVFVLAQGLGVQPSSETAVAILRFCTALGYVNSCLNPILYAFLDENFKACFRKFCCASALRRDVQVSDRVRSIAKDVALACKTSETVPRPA
# How it was run: as §2
# Human μ-opioid (MOP) = target: T5, Human μ-opioid (MOP) (Homo sapiens, UniProt P35372); assay: Radioligand binding, human μ-opioid (MOP) membranes, FlashPlate, [3H]-Naloxone
# T5 construct: purchased Perkin Elmer Biosignal
# T5 sequence (P35372 whole entry): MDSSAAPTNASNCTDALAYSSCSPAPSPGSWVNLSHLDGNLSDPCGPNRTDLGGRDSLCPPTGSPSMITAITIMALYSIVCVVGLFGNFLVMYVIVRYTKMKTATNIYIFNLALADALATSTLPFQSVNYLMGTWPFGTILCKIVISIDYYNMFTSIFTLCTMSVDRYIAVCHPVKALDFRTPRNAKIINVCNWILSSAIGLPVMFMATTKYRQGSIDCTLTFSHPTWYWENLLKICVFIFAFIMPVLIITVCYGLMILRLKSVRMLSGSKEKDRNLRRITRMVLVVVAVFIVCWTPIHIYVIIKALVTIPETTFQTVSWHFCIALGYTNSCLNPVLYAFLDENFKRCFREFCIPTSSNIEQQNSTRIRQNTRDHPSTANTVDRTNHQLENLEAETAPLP
# How it was run: as §2
# Mouse urotensin (mUR2) = target: T6, Mouse urotensin (mUR2) (Mus musculus, UniProt Q8VIH9); assay: Radioligand binding, mouse urotensin mUR2 membranes, FlashPlate, [125I]-Urotensin II
# T6 construct: purchased Perkin Elmer Biosignal
# T6 sequence (Q8VIH9 1-385): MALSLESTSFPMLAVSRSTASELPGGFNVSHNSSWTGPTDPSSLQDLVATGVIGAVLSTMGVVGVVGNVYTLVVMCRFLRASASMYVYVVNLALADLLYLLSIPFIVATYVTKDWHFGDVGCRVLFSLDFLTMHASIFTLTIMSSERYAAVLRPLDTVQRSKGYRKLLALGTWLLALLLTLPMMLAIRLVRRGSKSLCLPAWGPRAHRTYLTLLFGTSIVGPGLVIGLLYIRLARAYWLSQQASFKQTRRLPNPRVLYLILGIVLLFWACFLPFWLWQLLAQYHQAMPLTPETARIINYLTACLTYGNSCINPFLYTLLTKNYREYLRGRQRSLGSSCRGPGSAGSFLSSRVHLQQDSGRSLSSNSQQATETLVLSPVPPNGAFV
# How it was run: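 Cloned mouse urotensin (mUR2) receptor membranes from Perkin Elmer Biosignal were immobilized in FlashPlate microplates using a proprietary coating. Each well got 19.5 μl buffer, then 0.5 μl of DMSO, reference ligand, or compound. Adding 5 μl of [125I]-Urotensin II, diluted to 5× final concentration in binding buffer, started binding. Plates were sealed with TopSeal-A and incubated 1 hour at room temperature in the dark. Wells were counted for 30 seconds each on a TopCount after a 60-second delay, and percentage inhibition was calculated.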
# [1] = target: T7, Human neuropeptide Y (NPY-Y1) (Homo sapiens, UniProt P25929); assay: Radioligand binding, human neuropeptide Y NPY-Y1 membranes, FlashPlate, [125I]-PYY
# T7 construct: purchased Perkin Elmer Biosignal
# T7 sequence (P25929 1-384): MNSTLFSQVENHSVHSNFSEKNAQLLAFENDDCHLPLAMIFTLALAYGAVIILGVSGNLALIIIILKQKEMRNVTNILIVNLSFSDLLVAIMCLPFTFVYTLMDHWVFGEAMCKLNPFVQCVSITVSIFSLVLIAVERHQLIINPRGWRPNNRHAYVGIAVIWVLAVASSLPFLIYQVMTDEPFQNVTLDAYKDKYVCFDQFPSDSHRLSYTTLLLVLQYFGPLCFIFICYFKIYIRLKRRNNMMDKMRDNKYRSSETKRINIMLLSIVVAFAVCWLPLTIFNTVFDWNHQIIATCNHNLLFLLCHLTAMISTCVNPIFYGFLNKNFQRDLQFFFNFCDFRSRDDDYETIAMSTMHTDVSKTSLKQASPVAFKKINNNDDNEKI
# How it was run: as §2
# Human Melanocortin (MC3) = target: T8, Human Melanocortin (MC3) (Homo sapiens, UniProt P41968); assay: Radioligand binding, human melanocortin MC3 membranes, FlashPlate, [125I]-NDP-αMSH
# T8 construct: purchased Perkin Elmer Biosignal
# T8 sequence (P41968 whole entry): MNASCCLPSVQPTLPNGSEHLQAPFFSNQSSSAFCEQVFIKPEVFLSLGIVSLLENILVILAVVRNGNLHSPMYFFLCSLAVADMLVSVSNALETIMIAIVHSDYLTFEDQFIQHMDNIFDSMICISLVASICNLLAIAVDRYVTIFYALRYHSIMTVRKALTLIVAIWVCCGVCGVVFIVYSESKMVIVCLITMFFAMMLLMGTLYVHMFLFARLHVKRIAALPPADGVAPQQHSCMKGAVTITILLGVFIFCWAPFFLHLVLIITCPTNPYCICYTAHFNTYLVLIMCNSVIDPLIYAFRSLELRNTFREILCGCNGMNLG
# How it was run: as §2
# [2] = target: T9, Human melanin-concentrating hormone (MCH1) (Homo sapiens, UniProt Q99705); assay: Radioligand binding, human melanin-concentrating hormone MCH1 membranes, FlashPlate, [125I]-S36057
# T9 construct: purchased Perkin Elmer Biosignal
# T9 sequence (Q99705 whole entry): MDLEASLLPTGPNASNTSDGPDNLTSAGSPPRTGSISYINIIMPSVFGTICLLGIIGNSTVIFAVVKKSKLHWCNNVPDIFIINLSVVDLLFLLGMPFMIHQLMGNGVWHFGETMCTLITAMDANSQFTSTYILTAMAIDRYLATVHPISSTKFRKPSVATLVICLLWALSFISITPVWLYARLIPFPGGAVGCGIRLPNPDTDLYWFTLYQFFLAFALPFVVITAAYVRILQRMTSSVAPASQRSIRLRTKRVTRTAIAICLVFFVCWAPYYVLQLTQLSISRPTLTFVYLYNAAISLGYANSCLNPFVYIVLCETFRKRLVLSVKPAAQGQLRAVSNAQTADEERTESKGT
# How it was run: as §2
# Human δ-opioid (DOP) = target: T10, Human δ-opioid (DOP) (Homo sapiens, UniProt P41143); assay: Radioligand binding, human δ-opioid (DOP) membranes, FlashPlate, [3H]-Bremazocine
# T10 construct: purchased Perkin Elmer Biosignal
# T10 sequence (P41143 whole entry): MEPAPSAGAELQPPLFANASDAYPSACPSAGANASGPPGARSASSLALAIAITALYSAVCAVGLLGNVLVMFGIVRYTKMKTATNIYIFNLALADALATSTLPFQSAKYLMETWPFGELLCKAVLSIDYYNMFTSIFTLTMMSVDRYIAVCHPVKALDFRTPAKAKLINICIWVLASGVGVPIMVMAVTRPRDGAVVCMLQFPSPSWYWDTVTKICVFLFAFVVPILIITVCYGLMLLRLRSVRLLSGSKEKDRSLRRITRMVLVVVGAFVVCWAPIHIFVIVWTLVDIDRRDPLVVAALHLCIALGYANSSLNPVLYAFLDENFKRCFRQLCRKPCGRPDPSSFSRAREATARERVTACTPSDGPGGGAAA
# How it was run: as §2
# Human Melanocortin (MC4) = target: T11, Human Melanocortin (MC4) (Homo sapiens, UniProt P32245); assay: Radioligand binding, human melanocortin MC4 membranes, FlashPlate, [125I]-NDP-αMSH
# T11 construct: purchased Perkin Elmer Biosignal
# T11 sequence (P32245 whole entry): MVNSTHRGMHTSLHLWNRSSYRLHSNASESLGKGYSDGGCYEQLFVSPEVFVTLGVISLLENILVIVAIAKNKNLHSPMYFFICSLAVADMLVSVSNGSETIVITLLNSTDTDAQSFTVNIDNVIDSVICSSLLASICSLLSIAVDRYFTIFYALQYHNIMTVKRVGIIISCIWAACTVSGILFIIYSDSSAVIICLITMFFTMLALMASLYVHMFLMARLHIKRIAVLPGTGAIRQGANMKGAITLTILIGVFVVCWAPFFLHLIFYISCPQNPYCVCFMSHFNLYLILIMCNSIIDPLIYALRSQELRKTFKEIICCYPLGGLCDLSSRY
# How it was run: as §2
# T1 sequence (P25103 whole entry): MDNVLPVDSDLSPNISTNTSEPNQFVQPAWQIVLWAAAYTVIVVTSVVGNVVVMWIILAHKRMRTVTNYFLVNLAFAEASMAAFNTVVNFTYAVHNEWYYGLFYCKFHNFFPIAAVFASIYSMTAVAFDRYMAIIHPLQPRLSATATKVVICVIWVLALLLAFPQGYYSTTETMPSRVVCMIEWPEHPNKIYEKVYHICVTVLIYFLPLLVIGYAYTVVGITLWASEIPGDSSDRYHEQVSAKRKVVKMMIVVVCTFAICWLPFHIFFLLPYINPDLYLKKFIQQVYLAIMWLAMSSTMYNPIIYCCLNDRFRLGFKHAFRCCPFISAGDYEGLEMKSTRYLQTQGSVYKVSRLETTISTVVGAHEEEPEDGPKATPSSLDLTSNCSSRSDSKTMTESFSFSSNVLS
smiles,measurement,setting,value
N=C(N)NCC(=O)N[C@H]1C(OCc2ccc(Cl)cc2)O[C@H](COCc2ccc3ccccc3c2)[C@@H](O)[C@@H]1OCc1ccc2ccccc2c1 (stereo partly drawn) [compound 513],"A8: inhibition of radioligand binding, human neurokinin (NK1)",Human neurokinin (NK1); [125I]-Substance P,+ (“+” indicates greater than 50% inhibition at 10 μM)
same,"A5: inhibition of radioligand binding, human melanocortin (MC5)",Human melanocortin (MC5); [125I]-NDP-αMSH,+ (“+” indicates greater than 50% inhibition at 10 μM)
same,"A2: inhibition of radioligand binding, human κ-opioid (KOP)","Human κ-Opioid (KOP); [3H]-Diprenorphine, 10 µM",+ (“+” indicates greater than 50% inhibition at 10 μM)
same,"A10: inhibition of radioligand binding, human opioid (ORL1)",Human opioid (ORL1); [125I]-Nociceptin,+ (“+” indicates greater than 50% inhibition at 10 μM)
same,"A7: inhibition of radioligand binding, human μ-opioid (MOP)",Human μ-opioid (MOP); [3H]-Naloxone,+ (“+” indicates greater than 50% inhibition at 10 μM)
same,"A11: inhibition of radioligand binding, mouse urotensin (mUR2)",Mouse urotensin (mUR2); [125I]-Urotensin II,− (“−” indicates less than 50% inhibition at 10 μM)
same,"A9: inhibition of radioligand binding, human neuropeptide Y (NPY-Y1)","[1]; [125I]-PYY, 10 µM",+ (“+” indicates greater than 50% inhibition at 10 μM)
same,"A3: inhibition of radioligand binding, human melanocortin (MC3)",Human Melanocortin (MC3); [125I]-NDP-αMSH,+ (“+” indicates greater than 50% inhibition at 10 μM)
same,"A6: inhibition of radioligand binding, human melanin-concentrating hormone (MCH1)",[2]; [125I]-S36057,+ (“+” indicates greater than 50% inhibition at 10 μM)
same,"A1: inhibition of radioligand binding, human δ-opioid (DOP)",Human δ-opioid (DOP); [3H]-Bremazocine,− (“−” indicates less than 50% inhibition at 10 μM)
same,"A4: inhibition of radioligand binding, human melanocortin (MC4)",Human Melanocortin (MC4); [125I]-NDP-αMSH,+ (“+” indicates greater than 50% inhibition at 10 μM)
N=C(N)NCCC(=O)NC1C(OCc2ccc(-c3ccccc3)cc2)OC(COCc2ccc3ccccc3c2)C(O)C1OCc1ccc2ccccc2c1 (stereo not drawn) [compound 411],A8: inhibition of radioligand binding,"Human neurokinin (NK1); [125I]-Substance P, human NK1 membranes",+ (“+” indicates greater than 50% inhibition at 10 μM)
same,A5: inhibition of radioligand binding,"Human melanocortin (MC5); [125I]-NDP-αMSH, human MC5 membranes",+ (“+” indicates greater than 50% inhibition at 10 μM)
same,A2: inhibition of radioligand binding,"Human κ-Opioid (KOP); [3H]-Diprenorphine, human KOP membranes",− (“−” indicates less than 50% inhibition at 10 μM)
same,A10: inhibition of radioligand binding,"Human opioid (ORL1); [125I]-Nociceptin, human ORL1 membranes",+ (“+” indicates greater than 50% inhibition at 10 μM)
same,A7: inhibition of radioligand binding,"Human μ-opioid (MOP); [3H]-Naloxone, human MOP membranes",− (“−” indicates less than 50% inhibition at 10 μM)
same,A11: inhibition of radioligand binding,"Mouse urotensin (mUR2); [125I]-Urotensin II, mouse mUR2 membranes",− (“−” indicates less than 50% inhibition at 10 μM)
same,A9: inhibition of radioligand binding,"[1]; [125I]-PYY, human NPY-Y1 membranes",− (“−” indicates less than 50% inhibition at 10 μM)
same,A3: inhibition of radioligand binding,"Human Melanocortin (MC3); [125I]-NDP-αMSH, human MC3 membranes",+ (“+” indicates greater than 50% inhibition at 10 μM)
same,A6: inhibition of radioligand binding,"[2]; [125I]-S36057, human MCH1 membranes",+ (“+” indicates greater than 50% inhibition at 10 μM)
same,A1: inhibition of radioligand binding,"Human δ-opioid (DOP); [3H]-Bremazocine, human DOP membranes",− (“−” indicates less than 50% inhibition at 10 μM)
same,A4: inhibition of radioligand binding,"Human Melanocortin (MC4); [125I]-NDP-αMSH, human MC4 membranes",+ (“+” indicates greater than 50% inhibition at 10 μM)
COC[C@H]1OC(OCc2ccc(Cl)cc2)[C@H](NC(=O)CCNC(=N)N)[C@@H](OCc2ccc(-c3ccccc3)cc2)[C@@H]1O (stereo partly drawn) [compound 29],A8 radioligand binding inhibition,Human neurokinin (NK1); human neurokinin NK1 membranes,+ (“+” indicates greater than 50% inhibition at 10 μM)
same,A5 radioligand binding inhibition,Human melanocortin (MC5); human melanocortin MC5 membranes,+ (“+” indicates greater than 50% inhibition at 10 μM)
same,A2 radioligand binding inhibition,Human κ-Opioid (KOP); human κ-opioid (KOP) membranes,− (“−” indicates less than 50% inhibition at 10 μM)
same,A10 radioligand binding inhibition,Human opioid (ORL1); human ORL1 membranes,− (“−” indicates less than 50% inhibition at 10 μM)
same,A7 radioligand binding inhibition,Human μ-opioid (MOP); human μ-opioid (MOP) membranes,− (“−” indicates less than 50% inhibition at 10 μM)
same,A11 radioligand binding inhibition,Mouse urotensin (mUR2); mouse urotensin mUR2 membranes,− (“−” indicates less than 50% inhibition at 10 μM)
same,A9 radioligand binding inhibition,[1]; human NPY-Y1 membranes,− (“−” indicates less than 50% inhibition at 10 μM)
same,A3 radioligand binding inhibition,Human Melanocortin (MC3); human melanocortin MC3 membranes,+ (“+” indicates greater than 50% inhibition at 10 μM)
same,A6 radioligand binding inhibition,[2]; human MCH1 membranes,+ (“+” indicates greater than 50% inhibition at 10 μM)
same,A1 radioligand binding inhibition,Human δ-opioid (DOP); human δ-opioid (DOP) membranes,− (“−” indicates less than 50% inhibition at 10 μM)
same,A4 radioligand binding inhibition,Human Melanocortin (MC4); human melanocortin MC4 membranes,+ (“+” indicates greater than 50% inhibition at 10 μM)
